Results: paper PMC10113378, “Synthesis, in vitro α-glucosidase inhibitory activities, and molecular dynamic simulations of novel 4-hydroxyquinolinone-hydrazones as potential antidiabetic agents” (Scientific Reports, 2023)
Where two headings read alike, the source gives them in different places.

Assays:
α-glucosidase [1] = conditions: cited from earlier work
[2] = molecular target: T1, α-glucosidase enzyme (EC3.2.1.20, Saccharomyces cerevisiae) (Saccharomyces cerevisiae, UniProt P53341); test: biochemical; conditions: mean ± SD; substrate p-nitrophenyl glucopyranoside 4 mM, pH 6.8, 37 °C; read-out: α-Glucosidase inhibition IC50
T1 construct: purchased Sigma-Aldrich
Experimental: α-glucosidase enzyme (EC3.2.1.20, Saccharomyces cerevisiae, 20 U/mg) and substrate (p-nitrophenyl glucopyranoside) were purchased from Sigma-Aldrich. 1 mg of α-glucosidase was dissolved in potassium phosphate buffer (50 mM, pH = 6.8) to obtain the initial activity of 1 U/ml. Then, 20 µl of this enzyme solution was incubated with 135 µl of potassium phosphate buffer and 20 µl of test compound at various concentrations in DMSO. […] The percentage of inhibition for each entry was calculated by using the following formula: %Inhibition=Abscontrol-Abssample/Abscontrol×100.
IC50 values were obtained from the nonlinear regression curve using the Logit method[28],[29].

α-glucosidase [3] = molecular target: T2, α-glucosidase (Saccharomyces cerevisiae, UniProt P53341); test: Enzyme kinetic studies (Lineweaver–Burk plot, secondary plot); type: biochemical; conditions: for mode of inhibition: Lineweaver–Burk plot, Km increased, Vmax unchanged; for Ki: from plot of Km versus inhibitor concentration, read-out: inhibition constant, Ki
T2 construct: purchased Sigma-Aldrich
Experimental: A Lineweaver–Burk plot was generated to identify the type of inhibition and the Michaelis–Menten constant (Km) value was determined from the plot between the reciprocal of the substrate concentration (1/[S]) and reciprocal of enzyme rate (1/V) over various inhibitors concentrations[30],[31].

T1 sequence (P53341 whole entry): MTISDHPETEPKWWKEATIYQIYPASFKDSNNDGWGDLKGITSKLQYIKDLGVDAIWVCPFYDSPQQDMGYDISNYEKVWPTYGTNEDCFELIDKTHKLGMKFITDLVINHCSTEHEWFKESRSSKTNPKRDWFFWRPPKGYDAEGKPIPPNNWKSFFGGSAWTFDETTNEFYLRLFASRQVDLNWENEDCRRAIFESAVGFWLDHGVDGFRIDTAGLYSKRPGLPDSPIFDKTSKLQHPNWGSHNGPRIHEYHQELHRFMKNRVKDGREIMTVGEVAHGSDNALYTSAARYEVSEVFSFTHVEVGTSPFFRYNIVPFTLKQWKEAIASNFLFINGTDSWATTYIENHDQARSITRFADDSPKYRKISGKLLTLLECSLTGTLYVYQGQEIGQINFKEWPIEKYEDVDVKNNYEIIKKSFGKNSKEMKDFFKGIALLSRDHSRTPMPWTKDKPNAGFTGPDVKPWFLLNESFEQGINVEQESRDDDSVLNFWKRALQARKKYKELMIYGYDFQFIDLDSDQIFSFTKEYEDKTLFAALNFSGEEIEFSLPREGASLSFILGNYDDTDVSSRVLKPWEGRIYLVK
T2 sequence (P53341 whole entry): as above

IC50 [2]	melting point	SMILES	further results
520.2 ± 1.5 µM	179 to 181 °C	O=C(N/N=C/c1ccc(Br)cc1)c1c(O)c2ccccc2[nH]c1=O [Compound 6f, (E)-N'-(4-bromobenzylidene)-4-hydroxy-2-oxo-1,2-dihydroquinoline-3-carbohydrazide]	
120.5 ± 0.8 µM	208 to 210 °C	O=C(N/N=C/c1ccc([N+](=O)[O-])cc1)c1c(O)c2ccccc2[nH]c1=O [Compound 6g, (E)-4-hydroxy-N'-(4-nitrobenzylidene)-2-oxo-1,2-dihydroquinoline-3-carbohydrazide]	
136.7 ± 0.5 µM	180 to 182 °C	Cc1ccc(/C=N/NC(=O)c2c(O)c3ccccc3[nH]c2=O)cc1 [Compound 6h, (E)-4-hydroxy-N'-(4-methylbenzylidene)-2-oxo-1,2-dihydroquinoline-3-carbohydrazide]	
259 ± 1 µM	189 to 191 °C	COc1ccc(/C=N/NC(=O)c2c(O)c3ccccc3[nH]c2=O)cc1 [Compound 6i, (E)-4-hydroxy-N'-(4-methoxybenzylidene)-2-oxo-1,2-dihydroquinoline-3-carbohydrazide]	
154.8 ± 0.1 µM	177 to 179 °C	O=C(N/N=C/c1ccccc1O)c1c(O)c2ccccc2[nH]c1=O [Compound 6j, (E)-4-hydroxy-N'-(2-hydroxybenzylidene)-2-oxo-1,2-dihydroquinoline-3-carbohydrazide]	
196.3 ± 0.7 µM	186 to 188 °C	O=C(N/N=C/c1cccc(O)c1)c1c(O)c2ccccc2[nH]c1=O [Compound 6k, (E)-4-hydroxy-N'-(3-hydroxybenzylidene)-2-oxo-1,2-dihydroquinoline-3-carbohydrazide]	
187.8 ± 0.3 µM	185 to 187 °C	O=C(N/N=C/c1ccc(O)cc1O)c1c(O)c2ccccc2[nH]c1=O [Compound 6n, (E)-N'-(2,4-dihydroxybenzylidene)-4-hydroxy-2-oxo-1,2-dihydroquinoline-3-carbohydrazide]	
575.6 ± 0.4 µM	193 to 195 °C	COc1cc(/C=N/NC(=O)c2c(O)c3ccccc3[nH]c2=O)ccc1O [Compound 6o, (E)-4-hydroxy-N'-(4-hydroxy-3-methoxybenzylidene)-2-oxo-1,2-dihydroquinoline-3-carbohydrazide]	

Second part, the molecule before the results:

SMILES	IC50 [2]	melting point	further results
Oc1ccc2ccccc2n1 [A, 2-hydroxyquinoline]			IC50 (α-glucosidase [1]; Fig. 1): 64.4 ± 1.7 µg/mL
C[C@H]1O[C@H](O[C@H]2[C@H](O)[C@@H](O)[C@@H](O[C@H]3[C@H](O)[C@@H](O)C(O)O[C@@H]3CO)O[C@@H]2CO)[C@H](O)[C@@H](O)[C@@H]1N[C@H]1C=C(CO)[C@@H](O)[C@H](O)[C@H]1O (some centres unmarked) [Acarbose]			α-glucosidase inhibition (α-glucosidase [1]; at 128 μg/mL): 75.55%
O=C(N/N=C/c1ccc(O)c(O)c1)c1ccc(-c2nnc(-c3ccc4ncccc4c3)o2)cc1 [C]			IC50 (α-glucosidase [1]; quinoline–oxadiazole Schiff bases, read-out: IC50): 2.6 ± 0.01 µM
O=C(N/N=C/c1ccccc1)c1c(O)nc2ccccc2c1O [Compound 6a, (E)-N'-benzylidene-4-hydroxy-2-oxo-1,2-dihydroquinoline-3-carbohydrazide]	382.6 ± 0.9 µM		
O=C(N/N=C/c1ccccc1F)c1c(O)c2ccccc2[nH]c1=O [Compound 6b, (E)-N'-(2-fluorobenzylidene)-4-hydroxy-2-oxo-1,2-dihydroquinoline-3-carbohydrazide]	247 ± 1.1 µM	190 to 192 °C	
O=C(N/N=C/c1ccc(F)cc1)c1c(O)nc2ccccc2c1O [Compound 6c, (E)-N'-(4-fluorobenzylidene)-4-hydroxy-2-oxo-1,2-dihydroquinoline-3-carbohydrazide]	195.3 ± 1.2 µM		
O=C(N/N=C/c1ccc(Cl)cc1)c1c(O)c2ccccc2[nH]c1=O [Compound 6d, (E)-N'-(4-chlorobenzylidene)-4-hydroxy-2-oxo-1,2-dihydroquinoline-3-carbohydrazide]	131.6 ± 0.3 µM	194 to 196 °C	
O=C(N/N=C/c1cccc(Br)c1)c1c(O)c2ccccc2[nH]c1=O [Compound 6e, (E)-N'-(3-bromobenzylidene)-4-hydroxy-2-oxo-1,2-dihydroquinoline-3-carbohydrazide]	436.7 ± 1 µM	187 to 189 °C	
O=C(N/N=C/c1cc(Br)ccc1O)c1c(O)c2ccccc2[nH]c1=O [Compound 6l, (E)-N'-(5-bromo-2-hydroxybenzylidene)-4-hydroxy-2-oxo-1,2-dihydroquinoline-3-carbohydrazide]	94.2 ± 1 µM	171 to 173 °C	mode of inhibition (α-glucosidase [3]): competitive inhibition; Ki (α-glucosidase [3]): 92 µM
O=C(N/N=C/c1cc([N+](=O)[O-])ccc1O)c1c(O)c2ccccc2[nH]c1=O [Compound 6m, (E)-4-hydroxy-N'-(2-hydroxy-5-nitrobenzylidene)-2-oxo-1,2-dihydroquinoline-3-carbohydrazide]	93.5 ± 0.6 µM	198 to 200 °C	mode of inhibition (α-glucosidase [3]): competitive inhibition; Ki (α-glucosidase [3]): 93 µM
O=C(N/N=C/c1ccc(O)c(O)c1)c1ccc2ncccc2c1 [D]			IC50 (α-glucosidase [1]; quinoline derivatives, read-out: IC50): 6.2 ± 0.3 µM
O=C(Cc1ccc(Cl)cc1Cl)N/N=C1/C(=O)Nc2cc(Br)ccc21 [E]			IC50 (α-glucosidase [1]; isatin-hydrazone structure, recent research (reference number not given), read-out: IC50): 2.2 ± 0.25 µM
O=C(N/N=C/c1c(O)cc(O)cc1O)c1ccc(-c2cc(=O)c3ccccc3o2)cc1 [F]			IC50 (α-glucosidase [1]; flavone-hydrazone, read-out: IC50): 15.4 ± 0.22 µM
O=C(N/N=C/c1ccc(Cl)cc1)c1ccc(-c2nc3ccccc3s2)cc1 [G]			IC50 (α-glucosidase [1]; benzothiazole-bearing benzohydrazide, read-out: IC50): 5.31 ± 0.03 µM
O=C(N/N=C/c1cccc(F)c1)c1ccc2nc(-c3ccccc3)c(-c3ccccc3)nc2c1 [H]			mode of inhibition (α-glucosidase [1]): competitive mode of inhibition; IC50 (α-glucosidase [1]; read-out: IC50): 111 µM
